Assay [1] concerns the target T1, Polyunsaturated fatty acid lipoxygenase ALOX15 (Oryctolagus cuniculus, UniProt P12530).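 Also: inhibition of 15-lipoxygenase enzyme activity measured with linoleic acid as the substrate; in other assays of this panel Not Active means under 50% inhibition at 10 µM.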
T1 sequence (P12530 whole entry): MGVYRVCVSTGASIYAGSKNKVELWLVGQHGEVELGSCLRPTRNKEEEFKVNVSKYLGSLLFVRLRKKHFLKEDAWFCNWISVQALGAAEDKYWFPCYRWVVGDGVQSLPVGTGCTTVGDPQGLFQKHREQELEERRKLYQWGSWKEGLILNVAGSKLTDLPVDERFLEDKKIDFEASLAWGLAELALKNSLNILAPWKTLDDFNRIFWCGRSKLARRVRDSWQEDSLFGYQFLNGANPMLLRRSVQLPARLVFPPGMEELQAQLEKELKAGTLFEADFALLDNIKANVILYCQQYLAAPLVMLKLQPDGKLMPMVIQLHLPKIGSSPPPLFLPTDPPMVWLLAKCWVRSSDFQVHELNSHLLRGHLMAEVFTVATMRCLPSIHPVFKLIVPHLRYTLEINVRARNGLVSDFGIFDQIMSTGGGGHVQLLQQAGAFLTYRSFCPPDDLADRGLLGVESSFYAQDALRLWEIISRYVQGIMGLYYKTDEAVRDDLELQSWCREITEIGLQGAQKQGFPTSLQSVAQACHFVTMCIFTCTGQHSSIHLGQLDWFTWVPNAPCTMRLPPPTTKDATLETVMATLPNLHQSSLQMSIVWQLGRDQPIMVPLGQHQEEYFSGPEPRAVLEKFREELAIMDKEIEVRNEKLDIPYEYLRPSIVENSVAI
Description: biochemical. The format is tissue-based, Reticulocytes.

Assay [2] addresses Beta-2 adrenergic receptor (Homo sapiens, UniProt P07550). Kind of assay: DRUGMATRIX: Adrenergic beta2 radioligand binding (ligand: [3H] CGP-12177). In kind it is cell membranes, Membrane. Conditions: cho; Not Active = under 50% inhibition at 10 µM.
Assay [3] addresses Adenosine receptor A2a (Homo sapiens, UniProt P29274). Kind of assay: DRUGMATRIX: Adenosine A2A radioligand binding (ligand: […]). The format is cell membranes, HEK293, Membrane. Conditions: hek293; Not Active = under 50% inhibition at 10 µM.
Assay [4] has as its target T2, Neutrophil elastase (Homo sapiens, UniProt P08246).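 Also: inhibition of neutrophil elastase enzyme activity, measured with a p-nitroanilide-linked peptide substrate; in other assays of this panel Not Active means under 50% inhibition at 10 µM.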
T2 sequence (P08246 whole entry): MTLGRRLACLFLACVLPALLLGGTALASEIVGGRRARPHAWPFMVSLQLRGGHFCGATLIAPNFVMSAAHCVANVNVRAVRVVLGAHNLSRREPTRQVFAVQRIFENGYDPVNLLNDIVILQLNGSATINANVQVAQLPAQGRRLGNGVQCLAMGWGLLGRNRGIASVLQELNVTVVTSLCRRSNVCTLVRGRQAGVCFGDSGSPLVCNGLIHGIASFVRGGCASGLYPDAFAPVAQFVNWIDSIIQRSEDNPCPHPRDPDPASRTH
In kind it is tissue-based.

Assay [5] deals with cGMP-specific 3',5'-cyclic phosphodiesterase (Homo sapiens, UniProt O76074). Description: DRUGMATRIX: Phosphodiesterase PDE5 enzyme inhibition (substrate: [3H]cGMP + cGMP). The format is tissue-based, Platelet. Conditions: platelet; Not Active = under 50% inhibition at 10 µM.
Assay [6] has as its target T3, Muscarinic acetylcholine receptor M4 (Homo sapiens, UniProt P08173). Also: in other assays of this panel Not Active means under 50% inhibition at 10 µM.
T3 sequence (P08173 whole entry): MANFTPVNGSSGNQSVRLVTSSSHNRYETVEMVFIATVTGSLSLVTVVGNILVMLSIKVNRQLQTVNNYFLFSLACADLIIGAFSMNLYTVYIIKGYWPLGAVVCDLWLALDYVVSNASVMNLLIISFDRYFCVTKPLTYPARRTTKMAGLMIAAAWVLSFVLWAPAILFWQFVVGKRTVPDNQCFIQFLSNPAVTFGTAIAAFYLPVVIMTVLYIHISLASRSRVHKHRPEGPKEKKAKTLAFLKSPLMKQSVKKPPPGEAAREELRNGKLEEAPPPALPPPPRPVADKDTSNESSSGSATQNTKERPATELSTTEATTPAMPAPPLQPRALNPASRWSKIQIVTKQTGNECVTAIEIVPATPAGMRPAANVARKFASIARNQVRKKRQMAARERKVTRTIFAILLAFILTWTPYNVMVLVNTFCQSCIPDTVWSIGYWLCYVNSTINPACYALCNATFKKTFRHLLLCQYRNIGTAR
The format is cell membranes, CHO-K1, Membrane.

Assay [7] deals with Kappa-type opioid receptor (Homo sapiens, UniProt P41145). Description: DRUGMATRIX: Opiate kappa (OP2, KOP) radioligand binding (ligand: [3H] Diprenorphine). Conditions: Not Active = under 50% inhibition at 10 µM. In kind it is cell membranes, HEK293, Membrane.
Sequence of Kappa-type opioid receptor (P41145 whole entry): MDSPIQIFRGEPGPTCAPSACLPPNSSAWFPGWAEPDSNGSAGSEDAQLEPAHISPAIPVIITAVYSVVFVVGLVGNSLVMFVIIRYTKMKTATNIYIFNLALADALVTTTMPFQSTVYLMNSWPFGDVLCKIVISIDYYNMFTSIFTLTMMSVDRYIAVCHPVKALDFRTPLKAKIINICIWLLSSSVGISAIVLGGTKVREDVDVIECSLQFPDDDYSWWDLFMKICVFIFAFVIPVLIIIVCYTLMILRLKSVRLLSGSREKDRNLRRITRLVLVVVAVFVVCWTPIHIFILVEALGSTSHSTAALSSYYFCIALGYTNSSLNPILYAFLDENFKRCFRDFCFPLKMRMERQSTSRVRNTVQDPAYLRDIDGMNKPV
For assay [8], the target named is Beta-1 adrenergic receptor (Homo sapiens, UniProt P08588). Kind of assay: DRUGMATRIX: Adrenergic beta1 radioligand binding (ligand: [125I] Cyanopindolol). The format is cell membranes, CHO-K1, Membrane. Conditions: Not Active = under 50% inhibition at 10 µM.
Sequence of Beta-1 adrenergic receptor (P08588 whole entry): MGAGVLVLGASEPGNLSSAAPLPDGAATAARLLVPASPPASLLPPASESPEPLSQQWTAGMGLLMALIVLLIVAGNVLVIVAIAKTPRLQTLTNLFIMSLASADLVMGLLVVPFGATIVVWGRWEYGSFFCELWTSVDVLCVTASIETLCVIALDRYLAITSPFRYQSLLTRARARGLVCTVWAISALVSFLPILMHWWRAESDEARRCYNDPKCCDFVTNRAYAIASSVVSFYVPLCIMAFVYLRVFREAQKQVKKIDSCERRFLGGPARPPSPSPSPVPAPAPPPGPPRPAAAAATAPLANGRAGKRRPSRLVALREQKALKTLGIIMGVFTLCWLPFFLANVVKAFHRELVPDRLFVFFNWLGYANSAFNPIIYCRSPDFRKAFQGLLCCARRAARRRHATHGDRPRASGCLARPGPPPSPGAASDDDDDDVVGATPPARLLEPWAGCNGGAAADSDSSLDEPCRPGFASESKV
Assay [9] addresses T4, Alpha-2A adrenergic receptor (Homo sapiens, UniProt P08913).
T4 sequence (P08913 whole entry): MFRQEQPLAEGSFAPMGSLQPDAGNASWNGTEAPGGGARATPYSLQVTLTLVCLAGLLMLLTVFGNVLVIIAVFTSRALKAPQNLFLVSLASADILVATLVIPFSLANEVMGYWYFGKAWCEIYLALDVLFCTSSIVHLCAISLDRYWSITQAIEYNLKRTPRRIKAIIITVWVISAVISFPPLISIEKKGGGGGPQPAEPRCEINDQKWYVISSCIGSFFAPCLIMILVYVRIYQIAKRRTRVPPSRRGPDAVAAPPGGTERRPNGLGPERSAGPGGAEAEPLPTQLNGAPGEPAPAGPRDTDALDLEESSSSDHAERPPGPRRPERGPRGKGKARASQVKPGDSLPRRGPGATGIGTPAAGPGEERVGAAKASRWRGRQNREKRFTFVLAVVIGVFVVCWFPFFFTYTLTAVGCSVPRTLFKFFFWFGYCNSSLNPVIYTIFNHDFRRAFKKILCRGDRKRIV
In kind it is cell membranes, Sf9, Membrane. Conditions: sf9.

Assay [10] is described as follows: DRUGMATRIX: Calcium Channel Type L, Phenylalkylamine radioligand binding (ligand: [3H] (-)-Desmethoxyverapamil (D-888)). In kind it is cell membranes, Rattus norvegicus, Wistar, Brain, Membrane. Conditions: Not Active = under 50% inhibition at 10 µM.
A short description of assay [11]: DRUGMATRIX: Sodium/nucleoside co-transporter radioligand binding (ligand: nitrobenzylthioinosine). In kind it is cell membranes, Cavia porcellus, Dunkin-Hartley, Cerebral cortex, Membrane. Conditions: Not Active = under 50% inhibition at 10 µM.
The target of assay [12] is D(1A) dopamine receptor (Homo sapiens, UniProt P21728). Description: DRUGMATRIX: Dopamine D1 radioligand binding (ligand: [3H] SCH-23390). In kind it is cell membranes, CHO, Membrane. Conditions: cho, Not Active = under 50% inhibition at 10 µM.
Sequence of D(1A) dopamine receptor (P21728 whole entry): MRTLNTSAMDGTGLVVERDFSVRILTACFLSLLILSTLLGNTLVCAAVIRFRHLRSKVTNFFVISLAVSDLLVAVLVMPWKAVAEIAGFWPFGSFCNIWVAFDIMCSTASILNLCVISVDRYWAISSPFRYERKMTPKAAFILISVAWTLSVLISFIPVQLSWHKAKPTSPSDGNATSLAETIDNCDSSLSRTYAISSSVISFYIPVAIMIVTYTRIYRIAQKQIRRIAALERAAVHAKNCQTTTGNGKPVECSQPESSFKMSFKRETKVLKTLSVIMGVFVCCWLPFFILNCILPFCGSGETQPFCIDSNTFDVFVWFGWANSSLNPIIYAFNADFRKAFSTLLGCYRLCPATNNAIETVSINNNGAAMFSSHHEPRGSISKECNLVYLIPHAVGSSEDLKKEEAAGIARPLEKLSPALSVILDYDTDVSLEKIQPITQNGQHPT

Sequence of Adenosine receptor A2a (P29274 whole entry): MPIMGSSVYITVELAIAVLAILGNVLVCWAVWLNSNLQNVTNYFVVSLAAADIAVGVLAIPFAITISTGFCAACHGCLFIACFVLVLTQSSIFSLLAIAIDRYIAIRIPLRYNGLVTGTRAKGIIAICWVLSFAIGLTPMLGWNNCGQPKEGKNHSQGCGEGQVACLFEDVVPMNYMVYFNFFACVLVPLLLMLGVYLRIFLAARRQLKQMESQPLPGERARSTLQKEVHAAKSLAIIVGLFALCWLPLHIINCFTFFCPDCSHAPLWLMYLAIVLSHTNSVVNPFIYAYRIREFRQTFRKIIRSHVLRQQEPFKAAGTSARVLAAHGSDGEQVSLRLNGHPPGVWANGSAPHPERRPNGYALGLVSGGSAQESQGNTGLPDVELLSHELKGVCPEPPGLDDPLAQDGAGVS

As for `COc1ccc(CCN2CCC(Nc3nc4ccccc4n3Cc3ccc(F)cc3)CC2)cc1` [ASTEMIZOLE], the IC50 (commonly the concentration at which inhibition is half-maximal) is “Not Active” in [1] (reticulocytes); “Not Active” in assay [2]; “Not Active” in [3]; “Not Active” in assay [4]; “Not Active” in [5]; 1.86 µM in [6] (read-out: IC50). The Ki (commonly the equilibrium dissociation constant of an inhibitor or competing ligand from its target) in [6] (read-out: Ki) worked out at 0.259 µM.
Take `Clc1ccccc1C(c1ccccc1)(c1ccccc1)n1ccnc1` [CLOTRIMAZOLE]: the IC50 entry in assay [1] (reticulocytes) was “Not Active”; in [7] (read-out: IC50), 6.3 µM; in assay [4], “Not Active”; in [5], “Not Active”; in [8] (read-out: IC50) it was 11.3 µM. Besides, the Ki in assay [7] came to 2.52 µM; in assay [8] (read-out: Ki), 6.51 µM; in assay [6] (read-out: Ki) it was 1.64 µM.
For the compound `CC(C)(O)c1ccccc1CC[C@@H](SCC1(CC(=O)O)CC1)c1cccc(/C=C/c2ccc3ccc(Cl)cc3n2)c1` [MONTELUKAST], the IC50 entry in [1] (reticulocytes), in assay [3], in assay [7] (hek293), in assay [4], in [5] and in [8] (cho-k1) was “Not Active” in each case. Besides, in [6] (cho-k1), the IC50 entry is given as “Not Active”.
With `NNc1ccccc1` [PHENYLHYDRAZINE], the IC50 in assay [1] (read-out: IC50) is 1.67 µM; in assay [2] it was “Not Active”; in assay [3], “Not Active”; in assay [9], “Not Active”; in assay [10] it was “Not Active”; in assay [11], “Not Active”. In addition, the IC50 result in assay [4], in assay [5], in [8] (cho-k1), in [6] (cho-k1) and in assay [12] was “Not Active” throughout. Also, the Ki entry in assay [10] and in assay [11] was “Not Active” throughout.
For `O=[N+]([O-])c1cc([As](=O)(O)O)ccc1O` [ROXARSONE], the half-inhibitory concentration (IC50) entry in assay [1] (reticulocytes), in [2], in [3], in assay [9], in assay [10] and in [11] was “Not Active” throughout. Further, the IC50 result in [4], in assay [5], in [8] (cho-k1), in assay [6] (cho-k1) and in [12] was “Not Active” in each case. Besides, the Ki result in assay [1] (reticulocytes), in [2], in assay [3], in assay [9], in assay [10] and in [11] was “Not Active” throughout. Also, the Ki entry in assay [4], in assay [5], in assay [8] (cho-k1), in assay [6] (cho-k1) and in assay [12] was “Not Active” each time.
Take `CSc1ccc2c(c1)N(CCC1CCCCN1C)c1ccccc1S2` (stereo unspecified) [THIORIDAZINE]: the IC50 entry in [1] (reticulocytes), in assay [2], in assay [3], in assay [4], in [5] and in assay [8] (cho-k1) was “Not Active” in each case.
`COc1cccc(C2(O)CCCCC2CN(C)C)c1` (stereo unspecified) [TRAMADOL]: the IC50 entry in [1] (reticulocytes), in assay [2], in [3], in assay [9], in [4] and in [5] was “Not Active” throughout. The IC50 result in assay [8] (cho-k1) and in assay [6] (cho-k1) was “Not Active” in each case.
On to `COc1ccc(C(CN(C)C)C2(O)CCCCC2)cc1` (stereo unspecified) [VENLAFAXINE], for which the IC50 entry in assay [1] (reticulocytes), in assay [2], in assay [3], in assay [9], in assay [10] and in assay [11] was “Not Active” throughout. Also, the IC50 result in assay [4], in [5], in assay [8] (cho-k1), in [6] (cho-k1) and in [12] was “Not Active” in each case. The inhibition constant Ki result in [10] and in assay [11] was “Not Active” each time.
As to IVERMECTIN, the IC50 entry in [1] (reticulocytes) was “Not Active”; in [2], “Not Active”; in assay [3] it was “Not Active”; in assay [9] (read-out: IC50), 5.84 µM; in assay [10] it was “Not Active”; in assay [11] it was “Not Active”. The IC50 result is “Not Active” in [4]; “Not Active” in [5]; “Not Active” in [8] (cho-k1); “Not Active” in assay [6] (cho-k1); 4.51 µM in assay [12] (read-out: IC50). Moreover, the Ki entry is “Not Active” in [1] (reticulocytes); “Not Active” in assay [2]; “Not Active” in [3]; 2.19 µM in [9] (read-out: Ki); “Not Active” in [10]; “Not Active” in assay [11]. Moreover, the Ki result was “Not Active” in assay [4]; “Not Active” in [5]; “Not Active” in [8] (cho-k1); “Not Active” in assay [6] (cho-k1); 2.26 µM in assay [12] (read-out: Ki).

The record behind these values is ChEMBL document CHEMBL1909046, “DrugMatrix in vitro pharmacology data”.
